Results taken from paper PMC11411213 (Journal of Molecular Cell Biology, 2024).

Experiments:
[1] = system: intracellular ROS levels in Calu-3 cells; format: cell-based, human
[2] = in vitro; conditions: human
[3] = system: Calu-3 cells
[4] = system: SARS-CoV-2 Delta strain; conditions: mouse, in vivo
[5] = system: pseudotyped vesicular stomatitis virus (VSV) that contains SARS-CoV-2 Spike protein; format: cell-based

| Compound | intracellular ROS levels after 24 h treatment [1] | CC50 [2] | cytotoxic activity (in words) [3] | CC50 [3] | other results |
| --- | --- | --- | --- | --- | --- |
| N[C@@H](CCC(=O)N[C@@H](CS)C(=O)NCC(=O)O)C(=O)O [GSH, glutathione] | reduced ROS levels | – | – | – | – |
| O=C(O)c1cc(/N=N/c2ccc(S(=O)(=O)Nc3ccccn3)cc2)ccc1O [Sulfasalazine] | – | > 500 µM | no cytotoxicity at any of the tested concentrations | – | – |
| COc1cc(Nc2ncc(F)c(Nc3ccc4c(n3)NC(=O)C(C)(C)O4)n2)cc(OC)c1OC [Tamatinib] | – | 5.74 ± 0.354 µM | cytotoxic in the micromolar range | – | – |
| COc1cc2c(Nc3ccc(Br)cc3F)ncnc2cc1OCC1CCN(C)CC1 [Vandetanib] | – | 3.76 ± 0.132 µM | cytotoxic in the micromolar range | – | – |
| MKI-1 | – | – | cytotoxic in the high nanomolar range | 0.892 ± 0.001 µM | – |
| N-acetyl cysteine [NAC] | reduced ROS levels | – | – | > 5000 µM | IHC analysis of the N protein in the lungs [4]: confirmed by immunohistochemistry; levels of viral transcripts N and RdRp in lungs (qPCR) [4]: significantly lower levels of viral transcripts than untreated mice; effect on SARS-CoV-2 entry (Spike pseudovirus luciferase) [5]: did not observe any effect |
| imidazole ketone erastin [IKE] | reduced the basal ROS level | – | – | 9.29 ± 0.324 µM | intracellular ROS levels after SARS-CoV-2 infection with 24 h pretreatment [1]: prevented virus-induced ROS bursts; intracellular ROS levels over time after administration [1]: biphasic trend, with an initial increase at early time points (0–6 h) followed by a substantial decrease at a later time point (24 h) |
